Columns and labels:
p110γ = p110γ (Homo sapiens, UniProt P48736); assay: Transcreener KINASE Assay, kinase inhibition of p110γ; format: biochemical; conditions: for PI3Kγ IH % @ 1 uM: 1 uM test compound; for IC50: read-out: PI3Kγ IC50
How it was run: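 FP read-out: far-red competitive immunoassay sensing ADP produced by recombinant p110/p85 or p110γ enzyme. Reaction 80 min RT, then detection mix 60 min RT. IC50 from curve fit.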

p110β/p85α = p110β/p85α (Homo sapiens, UniProt P42338); assay: Transcreener KINASE Assay, kinase inhibition of p110β/p85α; format: biochemical; conditions: for PI3Kβ IH % @ 1 uM: 1 uM test compound; for IC50: read-out: PI3Kβ IC50
How it was run: (§1)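 ADP production was read by fluorescence polarization immunoassay (60 min detection step) after an 80 min room-temperature reaction of p110/p85α enzyme, compound in 2% DMSO, and PIP2/ATP solution (30 uM/10 uM as added) in HEPES buffer with MgCl2 and DTT. IC50s came from inhibition versus the DMSO control.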

PI3Kγ = PI3Kγ (Mus musculus, UniProt Q9JHG7); assay: Acumen Assay - Raw264.7 p-AKT Assay (C5a stimulated); format: cell-based; conditions: Raw264.7 macrophage cells, compound 30 min, stimulated with 10 nM C5a for 5 min, p-AKT (Ser473) readout; read-out: PI3Kγ cell-C5a Raw264.7 IC50
Protocol: Acumen Assay—Raw264.7 p-AKT Assay
Acumen® eX3 (A Multilaser Microplate Cytometer For Enhanced High Content Screening): TTP LabTech
3×10^4 Raw264.7 macrophage cells were seeded into 96-well plates with DMEM+10% heat-inactivated FBS at […], 90 ul/well, overnight. After starvation for 3 hr at 37° C. under 5% CO2, Raw264.7 cells were treated with 10 ul/well various concentrations of compound or 0.5% DMSO for 30 min, and then stimulated with 10 ul/well 10 nM C5a for 5 min.
1.) Cells were fixed 110 μL of 4% pre-warmed Paraformaldehyde (2% final), incubate for 45 min at room temperature. 2.) Remove paraformaldehyde solution. Add 100 μL of ice-cold 0.1% Triton X-100 in PBS and leave at 4° C. for 30 min. 3.) Wash once in 100 μL PBS. 4.) Incubate with 100 μL blocking buffer (1% BSA, in PBS) for 2 hours at room temperature. 5.) Wash once for 5 min with 100 ul PBS. 6.) Incubate with 40 μL 1:200 dilution of phospho AKT (Ser473) rabbit antibody in antibody dilution buffer (0.1% BSA, in PBS) overnight at 4° C. 7.) Wash for 3 times for 10 min with 100 ul PBS. 8.) Incubate for 90 min at room temperature with 50 μL of goat anti-rabbit Alex488 antibody at a 1:1,000 dilution in antibody dilution buffer (0.1% BSA, in PBS). Cover plate in foil to keep out of light. 9.) Wash for 3 times for 10 min with 100 μL PBS. 10.) Add 50 μL of 1.5 μM Propidium Iodide solution to each well to determine cell number at a 1:1,000 dilution in PBS (stock: 1.5 mM). 11.) Incubate at room temperature for 30 min. 12.) Seal the plate with a black cover-seal (supplied with plate). 13.) Load the plate into the Acumen Explorer and scan with the appropriate instrument settings.

p110δ/p85α = p110δ/p85α (Homo sapiens, UniProt O00329); assay: Transcreener KINASE Assay, kinase inhibition of p110δ/p85α; format: biochemical; conditions: for PI3Kδ IH % @ 1 uM: 1 uM test compound; for IC50: read-out: PI3Kδ IC50
How it was run: as §1

p110α/p85α = p110α/p85α (Homo sapiens, UniProt P42336); assay: Transcreener KINASE Assay, kinase inhibition of p110α/p85α; format: biochemical; conditions: 1 uM test compound
Protocol: PI3K kinases including p110α/p85α, p110δ/p85α and p110γ are purchased from Invitrogen, and p110β/p85α is from Millipore.
Primary screening data and IC50 values are measured using Transcreener™ KINASE Assay (Bellbrook, Catalog #3003-10K). […] It is a universal, homogenous, high throughput screening (HTS) technology using a far-red, competitive fluorescence polarization immunoassay based on the detection of ADP to monitor the activity of enzymes that catalyze group transfer reactions. Briefly, the Transcreener KINASE Assay is designed as a simple two-part, endpoint assay.
In the first step, the 25 ul kinase reaction is performed by preparing a reaction mixture containing 5 ul test compound (2% DMSO final concentration), 10 ul kinase, buffer (50 mM HEPES, 100 mM NaCl, 1 mM EGTA, 0.03% CHAPS, 3 mM MgCl2, and freshly supplemented 1 mM DTT), and 10 ul 30 uM PIP2/10 uM ATP. The plate is sealed and incubated for 80 min at room temperature. Next, 25 ul ADP detection mix is added per well. The plate is sealed again and incubated for 60 min at room temperature, and then measure fluorescence polarization by Tecan Infinite F500 Reader.
Data is analyzed and IC50s are generated using the add-in software for Microsoft Excel, Xlfit™ (version 2.0). IH %=(ADP amount under 2% DMSO-ADP amount under test compound)/ADP amount under 2% DMSO.

Sequence of p110β/p85α (P42338 whole entry): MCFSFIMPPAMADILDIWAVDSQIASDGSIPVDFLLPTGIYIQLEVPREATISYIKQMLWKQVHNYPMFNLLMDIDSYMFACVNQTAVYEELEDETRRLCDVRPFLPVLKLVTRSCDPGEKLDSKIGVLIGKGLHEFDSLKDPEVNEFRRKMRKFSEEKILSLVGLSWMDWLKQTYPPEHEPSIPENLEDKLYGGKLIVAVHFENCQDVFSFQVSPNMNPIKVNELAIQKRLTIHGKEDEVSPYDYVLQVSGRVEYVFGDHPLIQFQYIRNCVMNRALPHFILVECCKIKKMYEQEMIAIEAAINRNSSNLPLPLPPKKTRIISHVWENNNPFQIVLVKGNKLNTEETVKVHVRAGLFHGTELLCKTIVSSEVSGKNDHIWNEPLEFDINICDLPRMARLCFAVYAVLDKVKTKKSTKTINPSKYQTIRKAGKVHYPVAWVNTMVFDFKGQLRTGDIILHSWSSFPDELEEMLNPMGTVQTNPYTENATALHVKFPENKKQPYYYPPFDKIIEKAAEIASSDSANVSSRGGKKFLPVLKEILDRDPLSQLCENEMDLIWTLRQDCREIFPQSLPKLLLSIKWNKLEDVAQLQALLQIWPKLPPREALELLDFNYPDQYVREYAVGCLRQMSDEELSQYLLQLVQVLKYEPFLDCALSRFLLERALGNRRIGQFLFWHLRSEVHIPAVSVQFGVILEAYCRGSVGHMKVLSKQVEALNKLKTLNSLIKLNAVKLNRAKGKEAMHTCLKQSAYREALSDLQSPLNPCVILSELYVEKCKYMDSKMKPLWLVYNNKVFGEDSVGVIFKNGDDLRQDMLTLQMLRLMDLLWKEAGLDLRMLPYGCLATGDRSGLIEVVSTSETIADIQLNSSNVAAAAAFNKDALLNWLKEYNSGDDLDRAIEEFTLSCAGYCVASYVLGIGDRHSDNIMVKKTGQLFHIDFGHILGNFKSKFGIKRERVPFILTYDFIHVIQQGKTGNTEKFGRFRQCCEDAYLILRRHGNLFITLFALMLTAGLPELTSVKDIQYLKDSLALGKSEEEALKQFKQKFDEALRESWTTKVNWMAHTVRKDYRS
Sequence of p110β/p85α (P27986 2-724 partner): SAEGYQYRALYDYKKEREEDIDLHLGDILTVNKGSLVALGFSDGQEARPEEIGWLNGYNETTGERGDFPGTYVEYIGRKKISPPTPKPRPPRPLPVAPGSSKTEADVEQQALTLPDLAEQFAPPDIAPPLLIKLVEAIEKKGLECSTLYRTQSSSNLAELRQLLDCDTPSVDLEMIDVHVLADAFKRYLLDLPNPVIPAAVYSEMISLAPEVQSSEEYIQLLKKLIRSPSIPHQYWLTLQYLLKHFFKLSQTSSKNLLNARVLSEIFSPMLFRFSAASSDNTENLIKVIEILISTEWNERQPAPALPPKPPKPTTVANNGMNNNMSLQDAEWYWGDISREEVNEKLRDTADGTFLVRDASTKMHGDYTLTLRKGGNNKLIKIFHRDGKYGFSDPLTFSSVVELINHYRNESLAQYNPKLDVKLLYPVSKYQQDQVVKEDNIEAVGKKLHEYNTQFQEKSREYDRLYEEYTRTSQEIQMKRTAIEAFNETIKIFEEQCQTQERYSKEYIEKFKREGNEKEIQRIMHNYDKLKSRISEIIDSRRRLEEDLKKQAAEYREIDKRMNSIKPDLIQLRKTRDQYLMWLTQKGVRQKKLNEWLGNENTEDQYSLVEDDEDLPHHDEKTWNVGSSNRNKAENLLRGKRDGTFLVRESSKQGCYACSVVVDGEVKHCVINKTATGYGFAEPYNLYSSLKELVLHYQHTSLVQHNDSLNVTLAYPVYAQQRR
Sequence of p110δ/p85α (O00329 whole entry): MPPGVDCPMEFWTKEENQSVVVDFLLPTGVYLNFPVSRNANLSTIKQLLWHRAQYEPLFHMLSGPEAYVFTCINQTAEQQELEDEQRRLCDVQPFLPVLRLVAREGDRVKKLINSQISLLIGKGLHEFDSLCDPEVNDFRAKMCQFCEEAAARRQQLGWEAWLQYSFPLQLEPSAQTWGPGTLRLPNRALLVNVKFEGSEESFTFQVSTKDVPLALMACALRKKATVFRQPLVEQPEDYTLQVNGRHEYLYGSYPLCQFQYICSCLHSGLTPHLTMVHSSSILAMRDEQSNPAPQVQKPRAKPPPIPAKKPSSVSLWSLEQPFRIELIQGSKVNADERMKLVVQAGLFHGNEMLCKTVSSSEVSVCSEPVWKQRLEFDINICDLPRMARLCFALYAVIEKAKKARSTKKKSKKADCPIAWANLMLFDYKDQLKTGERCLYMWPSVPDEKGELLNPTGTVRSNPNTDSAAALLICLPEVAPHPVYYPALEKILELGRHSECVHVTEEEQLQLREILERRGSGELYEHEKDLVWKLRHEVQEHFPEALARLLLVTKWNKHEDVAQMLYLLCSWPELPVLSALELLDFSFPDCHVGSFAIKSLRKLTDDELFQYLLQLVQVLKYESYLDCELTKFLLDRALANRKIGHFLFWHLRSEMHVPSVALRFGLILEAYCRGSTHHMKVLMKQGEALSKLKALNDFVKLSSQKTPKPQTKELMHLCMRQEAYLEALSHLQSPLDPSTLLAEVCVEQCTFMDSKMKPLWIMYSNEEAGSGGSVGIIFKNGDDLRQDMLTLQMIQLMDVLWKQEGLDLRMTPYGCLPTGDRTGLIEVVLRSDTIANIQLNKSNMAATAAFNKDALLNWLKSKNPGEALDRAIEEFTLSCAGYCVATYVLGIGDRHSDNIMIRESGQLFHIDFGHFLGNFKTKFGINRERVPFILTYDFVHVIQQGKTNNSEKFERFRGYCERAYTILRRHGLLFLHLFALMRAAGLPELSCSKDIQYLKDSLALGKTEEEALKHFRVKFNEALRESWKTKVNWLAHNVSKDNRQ
Sequence of p110δ/p85α (P27986 whole entry partner): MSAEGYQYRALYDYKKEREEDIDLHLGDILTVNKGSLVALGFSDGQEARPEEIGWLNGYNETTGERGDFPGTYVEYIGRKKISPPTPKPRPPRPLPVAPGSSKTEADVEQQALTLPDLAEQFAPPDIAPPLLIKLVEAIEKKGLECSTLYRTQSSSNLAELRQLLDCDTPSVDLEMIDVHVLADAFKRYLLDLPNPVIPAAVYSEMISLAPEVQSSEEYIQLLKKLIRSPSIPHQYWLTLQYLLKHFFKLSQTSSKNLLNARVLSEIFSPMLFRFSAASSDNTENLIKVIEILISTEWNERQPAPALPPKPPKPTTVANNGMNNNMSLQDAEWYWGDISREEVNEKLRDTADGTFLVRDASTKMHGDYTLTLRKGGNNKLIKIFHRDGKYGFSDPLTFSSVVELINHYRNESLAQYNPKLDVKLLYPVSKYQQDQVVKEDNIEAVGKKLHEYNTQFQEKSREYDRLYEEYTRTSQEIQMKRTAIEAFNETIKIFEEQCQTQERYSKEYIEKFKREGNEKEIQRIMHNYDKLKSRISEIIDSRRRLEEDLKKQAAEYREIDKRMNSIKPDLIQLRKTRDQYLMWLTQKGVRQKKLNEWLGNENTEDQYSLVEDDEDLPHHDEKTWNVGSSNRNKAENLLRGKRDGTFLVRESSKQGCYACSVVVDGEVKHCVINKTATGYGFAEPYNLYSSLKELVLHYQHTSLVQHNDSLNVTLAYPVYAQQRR
Sequence of PI3Kγ (Q9JHG7 whole entry): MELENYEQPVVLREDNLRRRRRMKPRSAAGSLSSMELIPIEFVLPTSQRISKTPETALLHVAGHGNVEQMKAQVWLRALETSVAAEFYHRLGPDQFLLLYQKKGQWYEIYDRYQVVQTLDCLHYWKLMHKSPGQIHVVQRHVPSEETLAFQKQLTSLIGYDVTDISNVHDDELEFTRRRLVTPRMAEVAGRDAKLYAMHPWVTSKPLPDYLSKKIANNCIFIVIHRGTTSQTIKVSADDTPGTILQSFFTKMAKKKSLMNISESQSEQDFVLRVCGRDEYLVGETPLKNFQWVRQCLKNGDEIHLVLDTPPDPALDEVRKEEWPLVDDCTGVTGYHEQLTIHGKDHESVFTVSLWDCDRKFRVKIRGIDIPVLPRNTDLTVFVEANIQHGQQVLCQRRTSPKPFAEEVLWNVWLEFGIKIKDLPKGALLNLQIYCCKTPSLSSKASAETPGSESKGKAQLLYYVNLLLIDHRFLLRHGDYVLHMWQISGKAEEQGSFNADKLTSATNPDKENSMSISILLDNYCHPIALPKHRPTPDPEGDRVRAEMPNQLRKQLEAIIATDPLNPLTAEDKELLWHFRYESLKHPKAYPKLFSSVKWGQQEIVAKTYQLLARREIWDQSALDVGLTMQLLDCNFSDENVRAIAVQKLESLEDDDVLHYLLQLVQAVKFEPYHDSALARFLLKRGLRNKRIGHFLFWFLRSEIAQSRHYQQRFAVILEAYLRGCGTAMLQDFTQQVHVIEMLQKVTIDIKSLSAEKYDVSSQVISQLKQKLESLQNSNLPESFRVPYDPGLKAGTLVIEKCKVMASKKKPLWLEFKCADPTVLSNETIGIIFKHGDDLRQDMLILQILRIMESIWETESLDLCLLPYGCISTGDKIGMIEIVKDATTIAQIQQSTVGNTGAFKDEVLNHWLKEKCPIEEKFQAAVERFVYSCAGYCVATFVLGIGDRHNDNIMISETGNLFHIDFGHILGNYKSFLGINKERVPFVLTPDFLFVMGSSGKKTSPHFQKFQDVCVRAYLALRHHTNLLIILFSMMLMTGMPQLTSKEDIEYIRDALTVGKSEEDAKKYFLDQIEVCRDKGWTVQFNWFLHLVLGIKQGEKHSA

PI3Kγ IH % @ 1 uM (p110γ) [%]	IC50 (p110γ) [µM]	PI3Kβ IH % @ 1 uM (p110β/p85α) [%]	IC50 (p110β/p85α) [µM]	IC50 (PI3Kγ) [µM]	PI3Kδ IH % @ 1 uM (p110δ/p85α) [%]	IC50 (p110δ/p85α) [µM]	PI3Kα IH % @ 1 uM (p110α/p85α) [%]	Structure (SMILES)
95.9	0.008	51.3	–	0.085	96.2	0.007	–	C[C@H]1CN(c2nc(N)ncc2C#N)C1c1nn2ccc(Cl)c2c(=O)n1-c1ccccc1 (some centres unmarked) [Compound 431]
98.7	0.002	78.5	0.024	0.037	>100	0.001	–	Cc1nc(N)nc(N2C[C@H](C)C2c2nn3ccc(F)c3c(=O)n2-c2ccccc2)c1C#N (some centres unmarked) [Compound 436]
>100	0.007	80.5	0.054	0.018	>100	0.0004	–	Cc1nc(N)nc(N2C[C@H](C)[C@H]2c2nn3ccc(Cl)c3c(=O)n2-c2cccc(F)c2)c1C#N [Compound 461]
>100	0.005	80.5	0.185	0.09	>100	0.001	–	Cc1nc(N)nc(N2C[C@H](C)[C@H]2c2nn3ccc(F)c3c(=O)n2-c2cccc(F)c2)c1C#N [Compound 462]
93.3	0.013	80.3	0.083	0.094	94.9	0.002	–	Cc1nc(N)nc(N2CCC2c2nn3ccc(Cl)c3c(=O)n2-c2ccccn2)c1C#N (centres unmarked) [Compound 475]
>100	0.008	64.7	–	0.046	>100	0.006	–	Cc1nc(N)nc(N2CC[C@H]2c2nn3ccc(C(F)(F)F)c3c(=O)n2-c2ccccc2)c1C#N [Compound 487]
>100	0.012	50.7	–	0.012	97.73	0.03	–	CC(=O)c1c(N)nc(N)nc1N1CCC1c1nn2ccc(Cl)c2c(=O)n1-c1ccccc1 (centres unmarked) [Compound 492]

Continued, compound first:

Structure (SMILES)	PI3Kγ IH % @ 1 uM (p110γ) [%]	IC50 (p110γ) [µM]	PI3Kβ IH % @ 1 uM (p110β/p85α) [%]	IC50 (p110β/p85α) [µM]	IC50 (PI3Kγ) [µM]	PI3Kδ IH % @ 1 uM (p110δ/p85α) [%]	IC50 (p110δ/p85α) [µM]	PI3Kα IH % @ 1 uM (p110α/p85α) [%]
C[C@H]1CN(c2ncnc3[nH]cc(C#N)c23)C1c1nn2ccc(Cl)c2c(=O)n1-c1ccccc1 (some centres unmarked) [Compound 235]	96.2	0.012	69.3	0.211	0.071	>100	0.004	–
CC(=O)c1cnc(N)nc1N1C[C@H](C)[C@H]1c1nn2ccc(Cl)c2c(=O)n1-c1ccccc1 [Compound 301]	>100	0.013	79.3	0.223	0.02	>100	0.004	–
C[S@+]([O-])c1c[nH]c2ncnc(N3CCC[C@H]3c3nn4ccc(Cl)c4c(=O)n3-c3ccccc3)c12 [Compound 382, 5-chloro-2-((S)-1-(5-((S)-methylsulfinyl)-7H-pyrrolo[2,3-d]pyrimidin-4-yl)pyrrolidin-2-yl)-3-phenylpyrrolo[2,1-f][1,2,4]triazin-4(3H)-one]	>100	0.033	84.4	0.088	–	99.0	0.001	14.1
C[S@@+]([O-])c1c[nH]c2ncnc(N3CCC[C@H]3c3nn4ccc(Cl)c4c(=O)n3-c3ccccc3)c12 [Compound 383, 5-chloro-2-((S)-1-(5-((R)-methylsulfinyl)-7H-pyrrolo[2,3-d]pyrimidin-4-yl)pyrrolidin-2-yl)-3-phenylpyrrolo[2,1-f][1,2,4]triazin-4(3H)-one]	>100	0.017	68.7	0.741	–	98.8	0.004	14.7
CC(=O)c1cnc(N)nc1N1C[C@H](C)[C@H]1c1nn2ccc(Cl)c2c(=O)n1-c1cccc(F)c1 [Compound 467]	94.3	0.005	77.1	0.374	0.039	89.7	0.001	–
CC1(C)CN(c2nc(N)ncc2C#N)C1c1nn2ccc(Cl)c2c(=O)n1-c1ccccc1 (centres unmarked) [Compound 471]	92.4	0.007	47.1	–	0.096	>100	0.003	–
CC(=O)c1cnc(N)nc1N1CC[C@H]1c1nn2ccc(C(F)(F)F)c2c(=O)n1-c1ccccc1 [Compound 486, (S)-2-(1-(5-acetyl-2-aminopyrimidin-4-yl)azetidin-2-yl)-3-phenyl-5-(trifluoromethyl)pyrrolo[2,1-f][1,2,4]triazin-4(3H)-one]	>100	0.013	41.5	–	0.051	>100	0.022	–
CC(=O)c1cnc(N)nc1N1C[C@H](C)[C@H]1c1nn2ccc(C(F)(F)F)c2c(=O)n1-c1ccccc1 [Compound 489]	>100	0.008	63.6	0.296	0.023	>100	0.003	–
CC(=O)c1c(N)nc(N)nc1N1C[C@H](C)C1c1nn2ccc(Cl)c2c(=O)n1-c1cccc(F)c1 (some centres unmarked) [Compound 493]	>100	0.008	73.6	0.25	0.008	99.7	0.006	–

Reference: patent publication US20150307520A1, “NOVEL HETEROARYL AND HETEROCYCLE COMPOUNDS, COMPOSITIONS AND METHODS THEREOF” (HUTCHISON MEDIPHARMA LIMITED, priority 2012, published 2015)
